Laboratory results as given in the supplement of paper PMC10307832.

How the values were obtained:
Assay in all cases: relative viability (nuclei count vs DMSO), 5 days (fraction); higher = more cells survive
TPCA-1 + Linsitinib = compound: C1=CC(=CC=C1C2=CC(=C(S2)NC(=O)N)C(=O)N)F [TPCA-1] + C[C@]1(O)C[C@@H](c2nc(-c3ccc4ccc(-c5ccccc5)nc4c3)c3c(N)nccn32)C1 [Linsitinib] (partner 1 µM)
Outline: (§1)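 One day after seeding in 1536-well plates, lung cancer cell lines were dosed by pin tool. Dosing was either single-drug or a fixed anchor-drug dose plus five library-drug doses (not always all listed) in √10 steps. After 5 days, nuclei were stained in one fix-and-stain step and counted on 4× images, and relative viability is the nuclei count of treated wells over that of vehicle wells, given as the median of duplicate plates.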

[1] = compound: C1/C(=C\C2=CC=CS2)/C(=O)/C(=C/C3=CC=CS3)/C1 + Cc1cc(Nc2cc(N3CCN(C)CC3)nc(Sc3ccc(NC(=O)C4CC4)cc3)n2)n[nH]1 [Tozasertib] (partner 0.1 µM)
Outline: as §1

[2] = compound: C1/C(=C\C2=CC=CS2)/C(=O)/C(=C/C3=CC=CS3)/C1 + O=C(c1cc(Cc2n[nH]c(=O)c3ccccc23)ccc1F)N1CCN(C(=O)C2CC2)CC1 [Olaparib] (partner 8 µM)
Outline: as §1

TPCA-1 + Phenformin = compound: C1=CC(=CC=C1C2=CC(=C(S2)NC(=O)N)C(=O)N)F [TPCA-1] + N=C(N)NC(=N)NCCc1ccccc1 [Phenformin] (partner 250 µM)
Outline: as §1

Cell Line | relative viability (TPCA-1 + Linsitinib; first compound 0.04 µM) | relative viability (TPCA-1 + Linsitinib; first compound 0.1265 µM) | relative viability (TPCA-1 + Linsitinib; first compound 0.4 µM) | relative viability (TPCA-1 + Linsitinib; first compound 1.265 µM) | relative viability (TPCA-1 + Linsitinib; first compound 4 µM) | relative viability ([1]; first compound 0.2 µM) | relative viability ([1]; first compound 0.6325 µM) | relative viability ([1]; first compound 2 µM) | relative viability ([1]; first compound 6.325 µM) | relative viability ([1]; first compound 20 µM) | relative viability ([2]; first compound 0.2 µM) | relative viability ([2]; first compound 0.6325 µM) | relative viability ([2]; first compound 2 µM) | relative viability ([2]; first compound 6.325 µM) | relative viability ([2]; first compound 20 µM) | relative viability (TPCA-1 + Phenformin; first compound 0.04 µM) | relative viability (TPCA-1 + Phenformin; first compound 0.1265 µM) | relative viability (TPCA-1 + Phenformin; first compound 0.4 µM) | relative viability (TPCA-1 + Phenformin; first compound 1.265 µM) | relative viability (TPCA-1 + Phenformin; first compound 4 µM)
HCC-15 | 0.951 | 0.886 | 0.82 | 0.895 | 0.802 | 0.422 | 0.497 | 0.367 | 0.397 | 0.357 | 0.784 | 0.771 | 0.707 | 0.656 | 0.66 | 0.578 | 0.479 | 0.509 | 0.435 | 0.275
LCLC-103H | 1.24 | 0.99 | 1.08 | 1.12 | 1.07 | 0.485 | 0.47 | 0.517 | 0.465 | 0.451 | 0.738 | 0.795 | 0.739 | 0.68 | 0.722 | 0.335 | 0.321 | 0.345 | 0.332 | 0.357
NCI-H23 | 0.537 | 0.559 | 0.759 | 0.602 | 0.549 | 0.374 | 0.394 | 0.373 | 0.421 | 0.323 | 0.398 | 0.324 | 0.301 | 0.382 | 0.309 | 0.813 | 0.764 | 0.759 | 0.681 | 0.353
NCI-H596 | 1.14 | 1.05 | 1.13 | 1.11 | 1.14 | 0.726 | 0.865 | 1.11 | 0.855 | 0.995 | 0.674 | 0.727 | 0.767 | 0.596 | 0.665 | 0.857 | 0.678 | 0.764 | 0.746 | 0.658
NCI-H460 | 0.946 | 0.737 | 0.735 | 0.339 | 0.286 | 0.377 | 0.438 | 0.401 | 0.323 | 0.321 | 0.548 | 0.455 | 0.503 | 0.398 | 0.449 | 0.607 | 0.523 | 0.53 | 0.502 | 0.336
HCC-366 | 0.72 | 0.568 | 0.807 | 0.458 | 0.427 | 0.105 | 0.0974 | 0.101 | 0.0969 | 0.0897 | 0.382 | 0.35 | 0.41 | 0.269 | 0.353 | 0.727 | 0.617 | 0.652 | 0.673 | 0.098
NCI-H2085 | 0.901 | 0.859 | 1 | 0.912 | 0.926 | 0.867 | 0.898 | 0.792 | 0.799 | 0.718 | 0.764 | 0.774 | 0.808 | 0.709 | 0.765 | 0.837 | 0.616 | 0.693 | 0.555 | 0.389
PC-14 | 0.939 | 0.978 | 0.926 | 0.966 | 0.692 | 0.604 | 0.59 | 0.597 | 0.571 | 0.595 | 0.289 | 0.28 | 0.239 | 0.192 | 0.31 | 0.575 | 0.492 | 0.717 | 0.508 | 0.568
HOP-62 | 0.96 | 0.676 | 0.921 | 1.12 | 0.973 | 0.368 | 0.39 | 0.348 | 0.302 | 0.39 | 0.433 | 0.596 | 0.391 | 0.359 | 0.272 | 0.692 | 0.64 | 0.684 | 0.603 | 0.485
NCI-H2087 | 0.989 | 0.938 | 1.03 | 0.836 | 0.553 | 0.404 | 0.257 | 0.257 | 0.201 | 0.225 | 0.708 | 0.528 | 0.699 | 0.561 | 0.594 | 0.475 | 0.417 | 0.417 | 0.351 | 0.154
NCI-H1793 | 1.05 | 0.674 | 0.934 | 0.683 | 0.727 | 0.394 | 0.297 | 0.347 | 0.338 | 0.258 | 0.904 | 0.931 | 0.978 | 0.782 | 0.893 | 0.364 | – | 0.297 | 0.402 | 0.261
PC-3 [JPC-3] | 0.968 | 0.875 | 0.946 | 0.9 | 0.937 | 0.924 | 0.843 | 0.824 | 0.746 | 0.896 | – | 1.22 | 1.09 | 0.762 | 1.19 | 0.461 | 0.461 | 0.484 | 0.486 | 0.468
H3255 | 1.06 | 0.826 | 0.95 | 0.866 | 0.708 | 0.714 | 0.617 | 0.566 | 0.537 | 0.546 | 0.635 | 0.59 | 0.635 | 0.509 | 0.535 | 0.39 | 0.39 | 0.353 | 0.356 | 0.316
EMC-BAC-2 | 0.848 | 0.739 | 0.822 | 0.837 | 0.66 | 0.267 | 0.339 | 0.298 | 0.293 | 0.48 | 0.51 | 0.495 | 0.484 | 0.424 | 0.514 | 0.604 | 0.476 | 0.571 | 0.4 | 0.247
CAL-12T | 0.868 | 0.754 | 0.73 | 0.763 | 0.411 | 0.334 | 0.32 | 0.356 | 0.256 | 0.309 | 0.691 | 0.749 | 0.742 | 0.648 | 0.733 | 0.622 | 0.51 | 0.612 | 0.51 | 0.172
NCI-H650 | 1.08 | 0.755 | 0.89 | 0.382 | 0.465 | 0.857 | 0.716 | 0.675 | 0.689 | 0.786 | 0.575 | 0.425 | 0.376 | 0.378 | 0.423 | 0.493 | 0.436 | 0.466 | 0.311 | 0.293
